Assay results from PubChem BioAssay (NCI).
Several values for one entry are separate records, joined by “and”; a condition that tells them apart may be missing. Identical values can stand only once.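 In this assay, cells in 96-well plates receive the compound at five concentrations for 48 hours. Endpoints are linearly interpolated between the surrounding concentrations. GI50 marks 50% less growth. The concentration for full growth arrest is given as TGI.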

How the values were obtained:
Experiment in all cases: growth of human tumour cells (NCI), 48 h
[1] = test system: MDA-MB-435
[2] = test system: RPMI-8226 leukemia
[3] = test system: NCI-H460 lung
[4] = test system: U251 CNS
[5] = test system: PC-3 prostate
[6] = test system: KM12 colon
[7] = test system: SNB-75 CNS
[8] = test system: HCT-116 colon
[9] = test system: SK-OV-3 ovarian
[10] = test system: SW-620 colon

SMILES | GI50 [1] [µM] | TGI [1] [µM] | GI50 [2] [µM] | TGI [2] [µM] | GI50 [3] [µM] | TGI [3] [µM] | GI50 [4] [µM] | TGI [4] [µM] | GI50 [5] [µM] | TGI [5] [µM] | GI50 [6] [µM] | TGI [6] [µM] | GI50 [7] [µM] | TGI [7] | GI50 [8] [µM] | TGI [8] [µM] | GI50 [9] [µM] | TGI [9] [µM] | GI50 [10] [µM] | TGI [10] [µM]
O=C(CSC(c1ccccc1)c1ccccc1)N/N=C/c1ccccc1Cl | 49.6 | > 100 | 8.73 | > 40.6 | 34 | > 63.2 | 25.8 | > 58.4 | 14.1 | 70.1 | 27.1 | 88.8 | 7.6 | 30 µM | 14 | > 54.6 | > 100 | > 100 | 34.7 | > 100
COc1cc(C2c3cc4c(cc3[C@@H](Nc3ccc([N+](=O)[O-])cc3)C3COC(=O)[C@H]23)OCO4)cc(OC)c1O (stereo partly specified) | – | > 100 | 0.256 | 7.22 | 0.0658 | 2.14 | 0.418 | 7.69 | – | > 100 | – | 6.42 | 0.333 | 0.836 µM and 7.83 µM | – | 14.2 | 0.798 | 10.1 | 0.783 | > 91.7
Cc1ccc(N=Nc2c(O)ccc3n[nH]nc23)cc1 | 4.47 | 37.5 | 5.52 | 55.4 | 13.9 | 52.9 | 11.4 | > 100 | 5.99 | > 100 | 10.8 | 37.9 | 17.4 | > 100 µM | 12.5 | > 100 | 10.3 | > 100 | 12.3 | > 100
CC1=CC(C)(C)Nc2ccc(Cc3ccc4c(c3)C(C)=CC(C)(C)N4)cc21 | 16.5 | > 100 | 2.02 | 23.5 | 12 | 55.1 | 3.96 | > 100 | 4.26 | > 100 | 8.34 | 72.6 | 14.8 | > 100 µM | 8.69 | 43.9 | 17.7 | 97.1 | 11.5 | 25.5
C[C@H]1COCCN1c1nc(-c2cnc(N)cc2C(F)F)nc(N2CCOCC2)n1 | 0.182 | 5.27 | 0.134 | 4.91 | 0.113 | > 100 | 0.368 | > 100 | 0.0985 | > 100 | 0.318 | 41 | 0.0355 | 0.354 µM | 0.233 | > 100 | 0.0614 | 0.412 | 0.258 | > 100
COc1cc2c3c(n(CCN4CCOCC4)c(=O)c2cc1OC)-c1ccccc1C3=O | > 100 | > 100 | 81 | > 100 | 45.1 | > 100 | 62.3 | > 100 | > 100 | > 100 | > 100 | > 100 | > 100 | > 100 µM | 59.7 | > 100 | 90.4 | > 100 | 89.2 | > 100
